Data: patent US8138171B2, “Dioxolane and dioxolanone fused indolobenzadiazepine HCV NS5B inhibitors” (Bristol-Myers Squibb Company, priority 2008, dated 2012)
Read-outs that look alike come from different tables or passages of the source.

Legend:
[1] = molecular target: T1, HCV NS5B RdRp genotype 1b (Hepatitis C virus genotype 1b, UniProt P26663); assay: Modified HCV NS5B RdRp enzyme assay (preincubation protocol); type: biochemical
T1 construct: The protein was expressed with an 18 amino acid C-terminal truncation to enhance the solubility; made in house; host or cells: E. coli BL21(DE3), pET21a
Procedure: HCV NS5B RdRp cloning, expression, and purification. The cDNA encoding the NS5B protein of HCV, genotype 1b, was cloned into the pET21a expression vector. The protein was expressed with an 18 amino acid C-terminal truncation to enhance the solubility. The E. coli competent cell line BL21(DE3) was used for expression of the protein. Cultures were grown at 37° C. for ˜4 hours until the cultures reached an optical density of 2.0 at 600 nm. The cultures were cooled to 20° C. and induced with 1 mM IPTG. Fresh ampicillin was added to a final concentration of 50 μg/ml and the cells were grown overnight at 20° C.
Cell pellets (3 L) were lysed for purification to yield 15-24 […] of purified NS5B. The lysis buffer consisted of 20 mM Tris-HCl, pH 7.4, 500 mM NaCl, 0.5% triton X-100, 1 mM DTT, 1 mM EDTA, 20% glycerol, 0.5 mg/ml lysozyme, 10 mM MgCl2, 15 ug/ml deoxyribonuclease I, and Complete™ protease inhibitor tablets (Roche). After addition of the lysis buffer, frozen cell pellets were resuspended using a tissue homogenizer. To reduce the viscosity of the sample, aliquots of the lysate were sonicated on ice using a microtip attached to a Branson sonicator. The sonicated lysate was centrifuged at 100,000×g for 1 hr at 4° C. and filtered through a 0.2 μm filter unit (Corning).
The protein was purified using three sequential chromatography steps: Heparin sepharose CL-6B, polyU sepharose 4B, and Hitrap SP sepharose (Pharmacia). The chromatography buffers were identical to the lysis buffer but contained no lysozyme, deoxyribonuclease I, MgCl2 or protease inhibitor and the NaCl concentration of the buffer was adjusted according to the requirements for charging the protein onto the column. Each column was eluted with a NaCl gradient which varied in length from 5-50 column volumes depending on the column type. After the final chromatography step, the resulting purity of the enzyme is >90% based on SDS-PAGE analysis. The enzyme was aliquoted and stored at −80° C.
Standard HCV NS5B RdRp enzyme assay. HCV RdRp genotype 1b assays were run in a final volume of 60 μl in 96 well plates (Costar 3912). The assay buffer is composed of 20 mM Hepes, pH 7.5, 2.5 mM KCl, 2.5 mM MgCl2, 1 mM DTT, 1.6 U RNAse inhibitor (Promega N2515), 0.1 mg/ml BSA (Promega R3961), and 2% glycerol. All compounds were serially diluted (3-fold) in DMSO and diluted further in water such that the final concentration of DMSO in the assay was 2%. HCV RdRp genotype 1b enzyme was used at a final concentration of 28 nM. A polyA template was used at 6 nM, and a biotinylated oligo-dT12 primer was used at 180 nM final concentration. Template was obtained commercially (Amersham 27-4110). Biotinylated primer was prepared by Sigma Genosys. 3H-UTP was used at 0.6 μCi (0.29 μM total UTP). Reactions were initiated by the addition of enzyme, incubated at 30° C. for 60 min, and stopped by adding 25 μl of 50 mM EDTA containing SPA beads (4 μg/μl, Amersham RPNQ 0007). Plates were read on a Packard Top Count NXT after >1 hr incubation at room temperature.
Modified HCV NS5B RdRp enzyme assay. A modified enzyme assay was performed essentially as described for the standard enzyme assay except for the following: The biotinylated oligo dT12 primer was precaptured on streptavidin-coated SPA beads by mixing primer and beads in assay buffer and incubating at room temperature for one hour. Unbound primer was removed after centrifugation. The primer-bound beads were resuspended in 20 mM Hepes buffer, pH 7.5 and used in the assay at final concentrations of 20 nM primer and 0.67 μg/μl beads. Order of addition in the assay: enzyme (14 nM) was added to diluted compound followed by the addition of a mixture of template (0.2 nM), 3H-UTP (0.6 μCi, 0.29 μM), and primer-bound beads, to initiate the reaction; concentrations given are final. Reactions were allowed to proceed for 4 hours at 30° C.
IC50 values for compounds were determined using seven different. […]

HCV replicon cells = assay: HCV replicon FRET assay; type: cell-based; conditions: Hepatitis C virus
Source text: FRET Assay Preparation. To perform the HCV FRET screening assay, 96-well cell culture plates were used. The FRET peptide (Anaspec, Inc.) (Taliani et al., Anal. Biochem. 1996, 240, 60-67) contains a fluorescence donor, EDANS, near one end of the peptide and an acceptor, DABCYL, near the other end. The fluorescence of the peptide is quenched by […] resonance energy transfer (RET) between the donor and the acceptor, but as the NS3 protease cleaves the peptide the products are released from RET quenching and the fluorescence of the donor becomes apparent. The assay reagent was made as follows: 5× cell Luciferase cell culture lysis reagent from Promega (#E153A) diluted to 1× with dH2O, NaCl added to 150 mM final, the FRET peptide diluted to 20 uM final from a 2 mM stock.
To prepare plates, HCV replicon cells, with or without a Renilla luciferase reporter gene, were trypsinized and placed into each well of a 96-well plate with titrated test compounds added in columns 3 through 12; columns 1 and 2 contained a control compound (HCV protease inhibitor), and the bottom row contained cells without compound. The plates were then placed in a CO2 incubator at 37° C.
Assays. Subsequent to addition of the test compounds described above (FRET Assay Preparation), at various times the plate was removed and Alamar blue solution (Trek Diagnostics, #00-100) was added per well as a measure of cellular toxicity, After reading in a Cytoflour 4000 instrument (PE Biosystems), plates were rinsed with PBS and then used for FRET assay by the addition of 30 ul of the FRET peptide assay reagent described above (FRET Assay Preparation) per well. The plate was then placed into the Cytoflour 4000 instrument which had been set to 340 excite/490 emission, automatic mode for 20 cycles and the plate read in a kinetic mode. Typically, the signal to noise using an endpoint analysis after the reads was at least three-fold. Alternatively, after Alamar blue reading, plates were rinsed with PBS, 50 ul of DMEM (high glucose) without phenol red was added and plates were then used for luciferase assay using the Promega Dual-Glo Luciferase Assay System.
Compound analysis was determined by quantification of the relative HCV replicon inhibition and the relative cytotoxicity values. To calculate cytoxicity values, the average Alamar Blue fluorescence signals from the control wells were set as 100% non-toxic. The individual signals in each of the compound test wells were then divided by the average control signal and multiplied by 100% to determine […]. To calculate the HCV replicon inhibition values, an average background value was obtained from the two wells containing the highest amount of HCV protease inhibitor at the end of the assay period. These numbers were similar to those obtained from naive Huh-7 cells.
The background numbers were then subtracted from the average signal obtained from the control wells and this number was used as 100% activity. The individual signals in each of the compound test wells were then divided by the averaged control values after background subtraction and multiplied by 100% to determine percent activity. EC50 values for a protease inhibitor titration were calculated as the concentration which caused a 50% reduction in FRET or luciferase activity. The two numbers generated for the compound plate, percent cytoxicity and percent activity were used to determine compounds of interest for further analysis.

[2] = HCV NS5B RdRp genotype 1b, preincubation protocol, read-out: IC50
[3] = HCV replicon cells, FRET assay, read-out: EC50

T1 sequence (P26663 2420-2992): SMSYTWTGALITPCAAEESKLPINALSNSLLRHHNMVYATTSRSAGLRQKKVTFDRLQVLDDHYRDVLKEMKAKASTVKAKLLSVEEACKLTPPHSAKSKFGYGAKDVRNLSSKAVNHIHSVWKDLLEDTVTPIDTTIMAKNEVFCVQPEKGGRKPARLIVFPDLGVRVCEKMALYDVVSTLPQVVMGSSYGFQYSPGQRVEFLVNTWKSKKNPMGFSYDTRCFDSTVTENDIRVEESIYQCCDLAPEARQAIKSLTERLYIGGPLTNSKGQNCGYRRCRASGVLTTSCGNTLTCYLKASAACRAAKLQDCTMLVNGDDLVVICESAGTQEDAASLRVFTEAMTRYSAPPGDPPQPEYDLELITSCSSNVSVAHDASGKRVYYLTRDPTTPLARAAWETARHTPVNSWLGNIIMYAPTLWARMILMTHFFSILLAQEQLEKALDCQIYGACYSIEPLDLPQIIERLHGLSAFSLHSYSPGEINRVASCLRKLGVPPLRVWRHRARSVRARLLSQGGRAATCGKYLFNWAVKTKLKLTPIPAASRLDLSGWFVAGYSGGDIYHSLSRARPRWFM

| Compound | IC50 [1, 2] [µM] | EC50 (HCV replicon cells; [3]) [µM] | EC50 (HCV replicon cells) [µM] | IC50 [1] [µM] |
| --- | --- | --- | --- | --- |
| COc1ccc2c(c1)[C@@H]1OC(C)(C)O[C@]1(C(=O)N(C)CCN(C)C)Cn1c-2c(C2CCCCC2)c2ccc(C(=O)NS(=O)(=O)N(C)C)cc21 (racemic) [Example 1, rac-(3aR,14bS)-10-Cyclohexyl-N^3a-(2-(dimethylamino)ethyl)-N^7-((dimethylamino)sulfonyl)-N^3a,2,2-trimethyl-13-(methyloxy)-4H-[1,3]dioxolo[4,5-d]indolo[2,1-a][2]benzazepine-3a,7(14bH)-dicarboxamide] | 0.17 | 0.13 |  |  |
| COc1ccc2c(c1)[C@@H]1OC(=O)O[C@]1(C(=O)N1C[C@@H](C)O[C@@H](C)C1)Cn1c-2c(C2CCCCC2)c2ccc(C(=O)NS(=O)(=O)N(C)C)cc21 (racemic) [Example 2, rac-(3aR,14bS)-10-Cyclohexyl-N-((dimethylamino)sulfonyl)-3a4(2R,6S)-2,6-dimethyl-4-morpholinyl)carbonyl)-13-(methyloxy)-2-oxo-3a,14b-dihydro-4H-[1,3]diaxolo[4,5-d]indolo[2,1-a][2]benzazepine-7-carboxamide] | 0.033 | 0.059 |  |  |
| COc1ccc2c(c1)[C@@H]1OC(C)(C)O[C@]1(C(=O)N1C[C@@H](C)O[C@@H](C)C1)Cn1c-2c(C2CCCCC2)c2ccc(C(=O)NS(=O)(=O)N(C)C)cc21 (racemic) [Example 3, rac-(3aR,14bS)-10-Cyclohexyl-N-((dimethylamino)sulfonyl)-3a-(((2R,6S)-2,6-dimethyl-4-morpholinyl)carbonyl)-2,2-dimethyl-13-(methyloxy)-3a,14b-dihydro-4H-[1,3]dioxolo[4,5-d]indolo[2,1-a][2]benzazepine-7-carboxamide] | 0.11 |  | 0.17 |  |
| COc1ccc2c(c1)[C@@H]1OC(=O)O[C@]1(C(=O)N1C3CCC1CN(C)C3)Cn1c-2c(C2CCCCC2)c2ccc(C(=O)NS(=O)(=O)N(C)C)cc21 (racemic) [Example 4, rac-(3aR,14bS)-10-Cyclohexyl-N-((dimethylamino)sulfonyl)-3a-((3-methyl-3,8-diazabicyclo[3.2.1]oct-8-yl)carbonyl)-13-(methyloxy)-2-oxo-3a,14b-dihydro-4H-[1,3]dioxolo[4,5-d]indolo[2,1-a][2]benzazepine-7-carboxamid] |  |  | 0.1 | 0.091 |
| COc1ccc2c(c1)[C@@H]1OC(C)(C)O[C@]1(C(=O)N1C3CCC1CN(C)C3)Cn1c-2c(C2CCCCC2)c2ccc(C(=O)NS(=O)(=O)N(C)C)cc21 (racemic) [Example 5, rac-(3aR,4bS)-10-Cyclohexyl-N-((dimethylamino)sulfonyl)-2,2-dimethyl-3a-((3-methyl-3,8-diazabicyclo[3.2.1]oct-8-yl)carbonyl)-13-(methyloxy)-3a,14b-dihydro-4H-[1,3]dioxolo[4,5-d]indolo[2,1-a][2]benzazepine-7-carboxamid] |  |  | 0.14 | 0.59 |
| COc1ccc2c(c1)[C@@H]1OCO[C@]1(C(=O)N1C3CCC1CN(C)C3)Cn1c-2c(C2CCCCC2)c2ccc(C(=O)NS(=O)(=O)N(C)C)cc21 (racemic) [Example 6, rac-(3aR,14bS)-10-Cyclohexyl-N-((dimethylamino)sulfonyl)-3a-((3-methyl-3,8-diazabicyclo[3.2.1]oct-8-yl)carbonyl)-13-(methyloxy)-3a,14b-dihydro-4H-[1,3]dioxolo[4,5-d]indolo[2,1-a][2]benzazepine-7-carboxamid] |  |  | 0.14 | 0.43 |
